From patent US11597909B2, “Method for the formation of renal tubules” (LEIBNIZ-INSTITUT FÜR POLYMER-FORSCHUNG DRESDEN E.V., priority 2016, dated 2023)

Experiments:
[1] = system: tubule organoids from HK-2 cells; test: Expression of kidney injury biomarker KIM-1 in tubule structures; type: cell-based, human; details: incubation with cisplatin, HK-2 tubule structures
Source text: (§1) The present invention can be used as an assay for nephrotoxicity.

[2] = system: tubule organoids from HK-2 cells; test: Apoptosis by caspase-3 immunocytochemistry in tubule organoids; type: cell-based, human; details: incubation with cisplatin, HK-2 tubule organoids
Source text: as §1

Structure (SMILES): N.N.[Cl][Pt][Cl] [cisplatin]
- expression of kidney injury biomarker KIM 1 [1]: expressed the injury-indicating kidney biomarker KIM 1
- apoptosis (cell death), caspase-3 immunocytochemistry [2]: increase in apoptosis
